According to US20250221981A1, “MAT2A INHIBITOR AND/OR TSG101 INHIBITOR FOR USE IN ANTIVIRAL THERAPY” (CAMBRIDGE ENTERPRISE LIMITED, priority 2022, published 2025):

Legend:
Zika American Strain = test: Western blot of Zika E protein in VERO E6 cells, American strain; type: cell-based, Zika virus; conditions: 20 μM, MOI >10, 48 hrs
Method: (§1) (B) Zika: VERO E6 cells were plated. The following day 20 μM PF-9366 or DMSO control was added to media. After 3 hrs cells were infected with Zika African strain, American Strain or Mock infected (MOI >10). After 48 hrs cells were harvested by scraping, pelleted and lysed into lysis buffer. Western blot was then conducted on the lysed cells. Protein embedded SDS-PAGE gels were transferred to membranes overnight and then probed for Zika E protein and GAPDH as a control.
(§2) For Flavivirus infections VERO E6 cells were infected with either African (Afn) or American (Amer) Zika at a multiplicity of infection (MOI) greater than 10, diluted in appropriate medium. At 1 hour post infection (hpi) medium was removed, cells were washed twice with phosphate-buffered saline (PBS), and fresh medium was added. At 48 hpi cells were either harvested for western blot.
(§3) Cell lysate preparation and western blots were performed as described in Ren et al. (J Gen Virol. 2012 February; 93 (Pt 2): 319-329). Primary antibodies used were ab53977 (VP1), PAb416 (LTAg), sc-166452 (MAT2A/1A), ab110226 (VP16), sc-53070 (ICP0), anti-Zika E Protein, and either anti-GAPDH or anti-tubulin as a loading control, followed by IRDye 680LT-, or IRDye 800CW-conjugated secondary antibodies. Imaging was performed using the LI-COR Odyssey Infrared Imaging system. Quantification was performed using LI-COR Image Studio Software. […]

Zika African strain = test: Western blot of Zika E protein in VERO E6 cells, African strain; type: cell-based, Zika virus; conditions: 20 μM, MOI >10, 48 hrs
Method: as §1, §2, §3

MAT2A = test: Western blot of cellular MAT2A expression in BKPyV infected RPTE/TERT1 cells; type: cell-based, human; conditions: 10 μM; BKPyV MOI 3; 48 hpi; normalised to tubulin
Method: (C)(i) Effect of PF-9366 on viral early and late gene and cellular MAT2A expression: Cells were infected with BKPyV (MOI 3) in media containing appropriate drug concentrations. At 1 hpi infectious media was removed, cells were washed and fresh media with appropriate drug concentrations was added. Cells were harvested at 48 hpi and a western blot performed. Membranes were blotted for viral late gene VP1, LTAg, cellular MAT2A/MAT1A, and tubulin as a loading control.
(ii) Cellular MAT2A expression increases at lower PF-9366 concentrations: The density of MAT2A expression (lower western blot band) was measured, normalized to tubulin loading control (LiCor Image Studio Software), n=3.
It has previously been noted by Quinlan et al. (Nat Chem Biol. 2017 13 (7): 785-792) that treatment with PF-9366 can increase MAT2A expression as a compensatory mechanism within cells. […] At 48 hpi cells were harvested and protein expression was analysed by western blotting (FIG. 3C(i)). MAT2A expression was quantified from band intensities, normalised to the tubulin loading control and plotted (FIG. 3C(ii), n=3). […]
Cell lysate preparation and western blots were performed as described in Ren et al. (J Gen Virol. 2012 February; 93 (Pt 2): 319-329). […] Quantification was performed using LI-COR Image Studio Software.

RPTE/hTERT cells = test: Cell viability assay, CellTiter-Blue fluorescence
Method: RPTE/hTERT cells were treated with MAT2A inhibitors at increasing concentrations for 48 hrs and assayed for cell viability using CellTiter-Blue fluorescence. Experiments were conducted using biological triplicates.
Experiment was conducted using biological triplicates.
Cell viability was assessed using the Cell-Titer-Blue assay (Promega), following manufacturers guidelines.

Structure (SMILES) | viral protein expression (Zika E protein), American strain (Zika American Strain) | viral protein expression (Zika E protein), African strain (Zika African strain) | increase in the cellular expression of MAT2A (MAT2A) [fold] | effect on cell viability and metabolism (RPTE/hTERT cells; MAT2A inhibitor (AG270 1 μM, AZ33 125 nM) in combination with Ilaprazole (5 μM), until 144 hr) | effect on cell viability and metabolism (RPTE/hTERT cells; at concentrations inhibiting BKPyV replication, 48 hrs)
CN(C)CCc1nnc2cc(-c3ccccc3)c3cc(Cl)ccc3n12 [PF-9366] | reduction | reduction | 8 |  | 
COc1ccc(-c2c(Nc3ccccn3)[nH]c3c(C4=CCCCC4)c(-c4ccccc4)nn3c2=O)cc1 [AG-270] |  |  |  | little effect | little effect
